Columns and labels:
oxytocin receptor [1] = target: T1, oxytocin receptor (Homo sapiens, UniProt P30559); assay: Binding affinity of ligands for the oxytocin receptor
T1 sequence (P30559 1-389): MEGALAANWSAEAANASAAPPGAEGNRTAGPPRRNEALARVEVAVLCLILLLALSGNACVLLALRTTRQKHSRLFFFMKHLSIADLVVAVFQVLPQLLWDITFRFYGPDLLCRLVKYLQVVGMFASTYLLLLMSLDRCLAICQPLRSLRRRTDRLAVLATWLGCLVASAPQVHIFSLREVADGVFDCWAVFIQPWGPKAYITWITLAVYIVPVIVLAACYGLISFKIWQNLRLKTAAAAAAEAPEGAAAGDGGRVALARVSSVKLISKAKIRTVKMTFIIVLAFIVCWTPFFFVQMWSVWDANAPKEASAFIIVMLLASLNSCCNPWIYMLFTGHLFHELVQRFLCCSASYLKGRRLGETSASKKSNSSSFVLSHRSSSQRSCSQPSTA

dopamine D2 receptors = dopamine D2 receptors (Homo sapiens, UniProt P14416); type: binding; details: read-out: IC50, inhibition of the FRET signal by increasing concentrations of NAPS; Cos7 cells transfected with D2 receptors; NAPS(Lumi4-Tb) (8) 1 nM and NAPS(d1) (9) 5 nM
Chain of dopamine D2 receptors (P14416 whole entry): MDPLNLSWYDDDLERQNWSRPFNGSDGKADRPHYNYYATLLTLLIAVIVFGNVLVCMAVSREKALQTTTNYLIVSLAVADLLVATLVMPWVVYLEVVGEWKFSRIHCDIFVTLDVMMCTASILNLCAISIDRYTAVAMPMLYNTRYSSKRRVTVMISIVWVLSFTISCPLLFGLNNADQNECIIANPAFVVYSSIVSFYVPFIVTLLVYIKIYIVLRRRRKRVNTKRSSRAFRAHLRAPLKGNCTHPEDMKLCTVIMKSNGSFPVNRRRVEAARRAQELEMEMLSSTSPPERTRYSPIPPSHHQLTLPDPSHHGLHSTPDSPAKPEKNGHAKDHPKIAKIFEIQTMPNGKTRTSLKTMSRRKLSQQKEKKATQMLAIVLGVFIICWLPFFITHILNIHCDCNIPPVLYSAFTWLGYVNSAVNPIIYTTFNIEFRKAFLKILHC

oxytocin receptor [2] = target: T2, oxytocin receptor (Rattus norvegicus, UniProt P70536); type: binding; details: mammary gland patches; excess of oxytocin 1 μM
T2 sequence (P70536 1-388): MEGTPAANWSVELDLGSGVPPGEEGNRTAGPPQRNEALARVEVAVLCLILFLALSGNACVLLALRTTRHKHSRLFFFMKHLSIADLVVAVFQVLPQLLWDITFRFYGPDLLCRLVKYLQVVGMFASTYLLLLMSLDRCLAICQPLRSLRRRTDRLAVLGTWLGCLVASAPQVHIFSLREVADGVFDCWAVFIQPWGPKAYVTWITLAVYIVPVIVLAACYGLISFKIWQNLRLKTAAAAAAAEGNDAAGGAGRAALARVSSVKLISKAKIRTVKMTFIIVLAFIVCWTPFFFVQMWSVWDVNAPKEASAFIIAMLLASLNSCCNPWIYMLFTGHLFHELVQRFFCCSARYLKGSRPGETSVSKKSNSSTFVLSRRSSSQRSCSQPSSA

Affinity for the oxytocin receptor (in words) (oxytocin receptor [1]) | Effect on the FRET signal between donor and acceptor antagonists (oxytocin receptor [2]) | Molecule | IC50 (dopamine D2 receptors) [nM]
poor affinity | – | d(CH2)5[DTyr(Et)2,Ile4,Eda(Alexa-647)9]VP [compound 14] | –
– | – | Nc1ccc(CCN2CN(c3ccccc3)C3(CCN(CCCC(=O)c4ccc(F)cc4)CC3)C2=O)cc1 [NAPS, N-(p-aminophenethyl)spiperone] | 1.9
high affinities | – | HO-[Thr[4],Orn[8](Eu-PBBP)]VT [compound 5] | –
no affinity | not affected | glucagon-like peptide 1 [GLP1] | –
high affinities | – | HO-[Thr[4],Orn[8](Alexa-647)]VT [compound 6] | –

Reference: article PMC3506176 (Nature chemical biology, 2010)
